# Test results: patent US20210386367A1, “DEVICES AND SYSTEMS FOR GASTROINTESTINAL MICROBIOME DETECTION AND MANIPULATION” (Progenity, Inc., priority 2018, published 2021)
# Entries after “also recorded” stand apart in the source; their conditions may differ. Where two headings read alike, the source gives them in different places.
# Legend:
# E. coli MMX 1312 = test: Broth microdilution MIC (time-kill study); format: cell-based, Escherichia coli
# E. coli ATCC 25922 = test: Broth microdilution MIC (time-kill study); format: cell-based, Escherichia coli
# S. pyogenes ATCC 49399 = test: Time-kill assay; format: cell-based, Streptococcus pyogenes; conditions: 2×, 4×, 8× MIC; 2, 6, 24 hr
# [1] = test system: Bacteroides spp. spontaneous mutants; test: Broth microdilution MIC of spontaneous mutants; format: cell-based; conditions: read-out: MIC
# Summary of the method: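 Isolates from drug selection plates were subcultured on agar containing drug at the selection concentration and identified by MALDI, then MIC was determined by CLSI broth microdilution (M100-S28) with serial two-fold dilutions. Plates were pre-reduced 1 h in an anaerobic chamber; final inoculum ~1×10^6 CFU/mL.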
# [2] = test system: Streptococcus spp. spontaneous mutants; conditions: S. pneumoniae ATCC 49619; CLSI QC range shown in parentheses; cited from earlier work
# S. pneumoniae ATCC 49619 [3] = test: Broth microdilution MIC (time-kill study); format: cell-based, Streptococcus pneumoniae
# B. vulgatus ATCC 8482 = test: Broth microdilution MIC (time-kill study); format: cell-based, Bacteroides vulgatus
# [4] = test system: Veillonella spp. clinical isolates; test: MIC distribution against clinical isolates; format: cell-based; conditions: 30 Veillonella spp. isolates
# Description: (n=19 V. parvula, n=9 Veillonella spp., n=1 Veillonella dispr., n=1 V. atypica) clinical isolates (μg/mL).
# As used herein, “minimum inhibitory concentration” or “MIC” refers to the lowest concentration of an antimicrobial agent, for example, an antimicrobial agent as described herein, required to inhibit the growth of an organism. […] “MIC90” represents the MIC value at which ≥90% of the strains within a test population are inhibited; the 90th percentile.
# Many susceptibility testing methods are known in the art and can be used as described herein (see, e.g., Jorgensen and Ferraro (2009) Clinical Infectious Diseases 49:1749-1755; and Maurer et al. (2017) Infectious Disease Reports 9:6839; the entire contents of each of the foregoing are incorporated herein by reference). For example, antimicrobial susceptibility can be determined using conventional culture based methods such as the broth or agar dilution test. In these dilution tests, the bacterial isolate of interest is inoculated onto different media that include serial dilutions of an antimicrobial agent, and incubated under appropriate conditions (e.g., overnight at 37° C.) to allow for growth to occur. Following the incubation period, the media is examined to determine bacterial growth. The lowest concentration of antibiotic that prevents growth represents the minimal inhibitory concentration (MIC). Broth dilution tests can be miniaturized and mechanized allowing for reproducibility and high throughput.
# S. pneumoniae ATCC 49619 [5] = test: Time-kill assay; format: cell-based, Streptococcus pneumoniae; conditions: 2×, 4×, 8× MIC; 2, 6, 24 hr
# [6] = test system: E. coli ATCC 35218 (TEM-1 β-lactamase producer); test: Broth microdilution MIC (time-kill study); format: cell-based, Escherichia coli
# [7] = test system: Bacteroides spp. (B. fragilis ATCC 25285, B. vulgatus, B. ovatus MMX 3503); test: Agar dilution MIC (spontaneous mutation study; strain in conditions); format: cell-based
# Clostridium spp. = test: Agar dilution MIC, 10 clinical isolates; format: cell-based
# S. agalactiae ATCC 13813 = test: Broth microdilution MIC (time-kill study); format: cell-based, Streptococcus agalactiae
# [8] = 10 Clostridium spp. clinical isolates
smiles,measurement,setting,value
C[C@@H](O)[C@H]1C(=O)N2C(C(=O)O)=C(S[C@@H]3CN[C@H](C(=O)N(C)C)C3)[C@H](C)[C@H]12 [meropenem],MIC,E. coli MMX 1312; E. coli MMX 1312,0.008 µg/mL
same,MIC,"E. coli MMX 1312; Escherichia coli, MMX1312, broth microdilution, read-out: MIC",0.008 µg/mL
same,MIC,E. coli ATCC 25922; E. coli ATCC 25922,0.015 µg/mL
same,MIC,"E. coli ATCC 25922; Escherichia coli, ATCC25922, broth microdilution, read-out: MIC",0.015 µg/mL
same,time-kill kinetics outcome (bactericidal = ≥3 log reduction in CFU per mL),S. pyogenes ATCC 49399,bactericidal effect at 4× and 8×MIC at 24 hr
same,MIC,"[1]; B. fragilis ATCC 25285, selected on rifaximin 4X MIC, Colony A",0.03 µg/mL
same,MIC,"[1]; B. fragilis ATCC 25285, selected on rifaximin 4X MIC, Colony B",0.06 µg/mL
same,MIC,"[1]; B. fragilis ATCC 25285, selected on rifaximin 8X MIC, Colony A",0.06 µg/mL
same,MIC,"[1]; B. fragilis ATCC 25285, selected on rifaximin 8X MIC, Colony B",0.06 µg/mL
same,MIC,[1]; B. fragilis ATCC 25285 Parent,0.06 µg/mL
same,MIC,"[1]; B. ovatus MMX 3503, selected on rifaximin 4X MIC, Colony A",0.12 µg/mL
same,MIC,"[1]; B. ovatus MMX 3503, selected on rifaximin 4X MIC, Colony B",0.12 µg/mL
same,MIC,"[1]; B. ovatus MMX 3503, selected on rifaximin 8X MIC, Colony A",0.12 µg/mL
same,MIC,"[1]; B. ovatus MMX 3503, selected on rifaximin 8X MIC, Colony B",0.12 µg/mL
same,MIC,[1]; B. ovatus MMX 3503 Parent,0.12 µg/mL
same,MIC,"[1]; B. vulgatus ATCC 8482, selected on ceftriaxone 4X MIC, Colony A",0.25 µg/mL
same,MIC,"[1]; B. vulgatus ATCC 8482, selected on ceftriaxone 4X MIC, Colony B",0.25 µg/mL
same,MIC,"[1]; B. vulgatus ATCC 8482, selected on rifaximin 4X MIC, Colony A",0.12 µg/mL
same,MIC,"[1]; B. vulgatus ATCC 8482, selected on rifaximin 4X MIC, Colony B",0.12 µg/mL
same,MIC,"[1]; B. vulgatus ATCC 8482, selected on rifaximin 8X MIC, Colony A",0.25 µg/mL
same,MIC,"[1]; B. vulgatus ATCC 8482, selected on rifaximin 8X MIC, Colony B",0.12 µg/mL
same,MIC,[1]; B. vulgatus ATCC 8482 Parent (Table 50),0.12 µg/mL
same,MIC,[1]; B. vulgatus ATCC 8482 Parent (Table 54),0.12 µg/mL
same,"MIC, CLSI QC range",[2],(0.03-0.25) μg/mL
same,MIC,S. pneumoniae ATCC 49619 [3]; S. pneumoniae ATCC 49619,0.06 µg/mL
same,MIC,"S. pneumoniae ATCC 49619 [3]; Streptococcus pneumoniae, ATCC49619, broth microdilution, read-out: MIC",0.06 µg/mL
same,MIC,B. vulgatus ATCC 8482; B. vulgatus ATCC 8482,0.12 µg/mL
same,MIC,"B. vulgatus ATCC 8482; Phocaeicola vulgatus, ATCC8482, broth microdilution, read-out: MIC",0.12 µg/mL
same,Cumulative percentage of isolates inhibited at MIC,[4]; MIC 0.5 μg/mL,43.3%
same,Number of test isolates at MIC,[4]; MIC 0.5 μg/mL,2
same,Cumulative percentage of isolates inhibited at MIC,[4]; MIC 1 μg/mL,53.3%
same,Number of test isolates at MIC,[4]; MIC 1 μg/mL,3
same,Cumulative percentage of isolates inhibited at MIC,[4]; MIC 2 μg/mL,70.0%
same,Number of test isolates at MIC,[4]; MIC 2 μg/mL,5
same,Cumulative percentage of isolates inhibited at MIC,[4]; MIC 4 μg/mL,76.7%
same,Number of test isolates at MIC,[4]; MIC 4 μg/mL,2
same,Cumulative percentage of isolates inhibited at MIC,[4]; MIC 8 μg/mL,100.0%
same,Number of test isolates at MIC,[4]; MIC 8 μg/mL,7
same,time-kill kinetics outcome (bactericidal = ≥3 log reduction in CFU per mL),S. pneumoniae ATCC 49619 [5],all three drug concentrations tested demonstrated bactericidal effects at 24 hr
same,MIC,[6]; E. coli ATCC 35218,0.015 µg/mL
same,MIC,"[6]; Escherichia coli, ATCC35218",0.015 µg/mL
same,MIC,"[7]; Bacteroides fragilis, ATCC25285, read-out: Agar MIC",0.12 µg/mL
same,MIC,"[7]; Bacteroides ovatus, ATCC25285, read-out: Agar MIC",0.12 µg/mL
same,MIC,"[7]; Phocaeicola vulgatus, ATCC 25285 / ATCC 8482, read-out: Agar MIC",0.12 µg/mL
same,MIC,"[7]; over evaluated Bacteroides spp., read-out: MIC values (agar dilution)",0.008 to 0.12 µg/mL
same,isolates susceptible,Clostridium spp.,One hundred
same,relative activity among drugs tested,Clostridium spp.,meropenem and metronidazole had similar activity; also recorded: most active agent
same,% S,Clostridium spp.; [8],100%
same,MIC50,Clostridium spp.; [8],1 µg/mL
same,MIC90,Clostridium spp.; [8],2 µg/mL
same,MIC range,Clostridium spp.; [8],0.06 to 2 µg/mL
same,MIC50,Clostridium spp.; Clostridium,1 µg/mL
same,MIC90,Clostridium spp.; Clostridium,2 µg/mL
same,Mode,"Clostridium spp.; modal MIC, 10 Clostridium spp. clinical isolates",1 µg/mL
same,MIC,S. agalactiae ATCC 13813; S. agalacttae ATCC 13813 (so in the source),0.008 µg/mL
same,MIC,"S. agalactiae ATCC 13813; Streptococcus agalactiae, ATCC13813, broth microdilution, read-out: MIC",0.008 µg/mL
